Values after ≈ are worked out from the molar mass of the structure shown.
How the values were obtained:
[1] = system: Klebsiella pneumoniae; test: Antimicrobial activity against Klebsiella pneumoniae subsp. ozaenae after 18 to 20 hr by agar dilution method; assay type: functional
[2] = system: Staphylococcus aureus; test: Antimicrobial activity against Staphylococcus aureus after 18 to 20 hr by agar dilution method; assay type: functional
[3] = system: Morganella morganii; test: Antimicrobial activity against Morganella morganii after 18 to 20 hr by agar dilution method; assay type: functional
[4] = system: Vibrio parahaemolyticus; test: Antimicrobial activity against Vibrio parahaemolyticus after 18 to 20 hr by agar dilution method; assay type: functional
[5] = system: Klebsiella pneumoniae; test: Antimicrobial activity against Klebsiella pneumoniae after 18 to 20 hr by agar dilution method; assay type: functional
[6] = system: Proteus mirabilis; test: Antimicrobial activity against Proteus mirabilis after 18 to 20 hr by agar dilution method; assay type: functional
[7] = system: Salmonella paratyphi; test: Antimicrobial activity against Salmonella enterica subsp. enterica serovar Paratyphi A after 18 to 20 hr by agar dilution method; assay type: functional
[8] = Cytotoxicity against Homo sapiens (human) CEM cells after 5 days by MTT assay; assay type: cell-based; conditions: CEM cells (CCRF-CEM)
[9] = system: Citrobacter freundii; test: Antimicrobial activity against Citrobacter freundii after 18 to 20 hr by agar dilution method; assay type: functional
[10] = system: Salmonella typhi; test: Antimicrobial activity against Salmonella enterica subsp. enterica serovar Typhi after 18 to 20 hr by agar dilution method; assay type: functional
[11] = system: Proteus vulgaris; test: Antimicrobial activity against Proteus vulgaris after 18 to 20 hr by agar dilution method; assay type: functional
[12] = system: Human immunodeficiency virus 1; test: Antiviral activity against Human immunodeficiency virus 1 IIIB infected CEM cells assessed as protection against viral infection after 6 days by XTT assay; assay type: functional, CCRF-CEM; parameters: concentration or dose not given beside the values
[13] = system: Edwardsiella tarda; test: Antimicrobial activity against Edwardsiella tarda after 18 to 20 hr by agar dilution method; assay type: functional
[14] = system: Salmonella typhimurium; test: Antimicrobial activity against Salmonella enterica subsp. enterica serovar Typhimurium after 18 to 20 hr by agar dilution method; assay type: functional
[15] = system: Shigella sonnei; test: Antimicrobial activity against Shigella sonnei after 18 to 20 hr by agar dilution method; assay type: functional
[16] = system: Pseudomonas aeruginosa; test: Antimicrobial activity against Pseudomonas aeruginosa after 18 to 20 hr by agar dilution method; assay type: functional
[17] = system: Priestia megaterium; test: Antimicrobial activity against Bacillus megaterium after 18 to 20 hr by agar dilution method; assay type: functional
[18] = system: Plesiomonas; test: Antimicrobial activity against Plesiomonas after 18 to 20 hr by agar dilution method; assay type: functional
[19] = system: Vibrio mimicus; test: Antimicrobial activity against Vibrio mimicus after 18 to 20 hr by agar dilution method; assay type: functional
[20] = system: Shigella boydii; test: Antimicrobial activity against Shigella boydii after 18 to 20 hr by agar dilution method; assay type: functional
[21] = system: Vero; test: Cytotoxicity against Chlorocebus aethiops (African green monkey) Vero cells up to 62.5 ug/ml; assay type: cell-based; conditions: chlorocebus sabaeus
[22] = system: Mycobacterium tuberculosis; test: Antimycobacterial activity against Mycobacterium tuberculosis H37Rv ATCC 27294 at 6.25 ug/ml by MABA; assay type: functional
[23] = system: Vibrio cholerae; test: Antimicrobial activity against Vibrio cholerae 0139 after 18 to 20 hr by agar dilution method; assay type: functional; conditions: 139
[24] = system: Salmonella enteritidis; test: Antimicrobial activity against Salmonella enterica subsp. enterica serovar Enteritidis after 18 to 20 hr by agar dilution method; assay type: functional
[25] = system: Vibrio fluvialis; test: Antimicrobial activity against Vibrio fluvialis after 18 to 20 hr by agar dilution method; assay type: functional
[26] = system: Enterobacter; test: Antimicrobial activity against Enterobacter after 18 to 20 hr by agar dilution method; assay type: functional
[27] = system: Mycobacterium tuberculosis; test: Antimycobacterial activity against Mycobacterium tuberculosis H37Rv ATCC 27294; assay type: functional
[28] = system: Escherichia coli; test: Antimicrobial activity against Escherichia coli NCTC 10418 after 18 to 20 hr by agar dilution method; assay type: functional
[29] = system: Human immunodeficiency virus 1; test: Antiviral activity against Human immunodeficiency virus 1 IIIB infected CEM cells assessed as inhibition of virus-induced cytopathicity after 6 days by XTT assay; assay type: functional, organism-based; conditions: CCRF-CEM, 144 h
[30] = system: Vibrio cholerae; test: Antimicrobial activity against Vibrio cholerae 01 after 18 to 20 hr by agar dilution method; assay type: functional; conditions: 1
[31] = system: Escherichia coli; test: Antibacterial activity against Escherichia coli NCTC 10418 infected in po dosed CF mouse compound administered 1 hr prior and 4 hr post infection; assay type: functional; conditions: NCTC 10418, po

COc1cc(Cc2cnc(/N=C3\C(=O)N(CN4CCN(c5c(F)cc6c(=O)c(C(=O)O)cn(C7CC7)c6c5F)CC4C)c4ccc(Cl)cc43)nc2N)cc(OC)c1OC (centres undefined)
MIC [1]: 0.0381 µg/mL (≈ 0.0459 µM) | MIC [2]: 0.019 µg/mL (≈ 0.0229 µM) | MIC [3]: 0.0381 µg/mL (≈ 0.0459 µM) | MIC [4]: 0.0763 µg/mL (≈ 0.092 µM) | MIC [5]: 2.44 µg/mL (≈ 2.94 µM) | MIC [6]: 0.0763 µg/mL (≈ 0.092 µM) | MIC [7]: 0.153 µg/mL (≈ 0.184 µM) | CC50 at 120 h [8]: 67 µg/mL (≈ 80.8 µM) | MIC [9]: 0.0095 µg/mL (≈ 0.0115 µM) | MIC [10]: 0.019 µg/mL (≈ 0.0229 µM) | MIC [11]: 0.0763 µg/mL (≈ 0.092 µM) | Activity [12]: 20.04% | MIC [13]: 0.0763 µg/mL (≈ 0.092 µM) | MIC [14]: 0.0381 µg/mL (≈ 0.0459 µM) | MIC [15]: 0.152 µg/mL (≈ 0.183 µM) | MIC [16]: 0.019 µg/mL (≈ 0.0229 µM) | MIC [17]: 0.019 µg/mL (≈ 0.0229 µM) | MIC [18]: 0.0381 µg/mL (≈ 0.0459 µM) | MIC [19]: 0.019 µg/mL (≈ 0.0229 µM) | MIC [20]: 0.0381 µg/mL (≈ 0.0459 µM) | Activity [21]: Non-toxic | inhibition at 6.25 µg/mL [22]: 100% | MIC [23]: 0.153 µg/mL (≈ 0.184 µM) | MIC [24]: 0.019 µg/mL (≈ 0.0229 µM) | MIC [25]: 0.019 µg/mL (≈ 0.0229 µM) | MIC [26]: 0.019 µg/mL (≈ 0.0229 µM) | MIC [27]: 3.13 µg/mL (≈ 3.77 µM) | MIC [28]: 0.0763 µg/mL (≈ 0.092 µM) | EC50 [29]: > 67 µg/mL | MIC [30]: 0.61 µg/mL (≈ 0.736 µM)

O=C(O)c1cn(C2CC2)c2cc(N3CCNCC3)c(F)cc2c1=O [CIPROFLOXACIN]
MIC [1]: 0.15 µg/mL (≈ 0.453 µM) | MIC [2]: 0.04 µg/mL (≈ 0.121 µM) | ED50 [31]: 1.25 mg/kg | MIC [3]: 0.04 µg/mL (≈ 0.121 µM) | MIC [4]: 0.04 µg/mL (≈ 0.121 µM) | MIC [5]: 0.04 µg/mL (≈ 0.121 µM) | MIC [6]: 0.04 µg/mL (≈ 0.121 µM) | MIC [7]: 0.04 µg/mL (≈ 0.121 µM) | MIC [9]: 0.04 µg/mL (≈ 0.121 µM) | MIC [10]: 0.04 µg/mL (≈ 0.121 µM) | MIC [11]: 0.04 µg/mL (≈ 0.121 µM) | MIC [13]: 0.04 µg/mL (≈ 0.121 µM) | MIC [14]: 0.04 µg/mL (≈ 0.121 µM) | MIC [15]: 0.04 µg/mL (≈ 0.121 µM) | MIC [16]: 0.15 µg/mL (≈ 0.453 µM) | MIC [17]: 0.04 µg/mL (≈ 0.121 µM) | MIC [18]: 0.04 µg/mL (≈ 0.121 µM) | MIC [19]: 0.04 µg/mL (≈ 0.121 µM) | MIC [20]: 0.04 µg/mL (≈ 0.121 µM) | MIC [23]: 0.04 µg/mL (≈ 0.121 µM) | MIC [24]: 0.04 µg/mL (≈ 0.121 µM) | MIC [25]: 0.04 µg/mL (≈ 0.121 µM) | MIC [26]: 0.04 µg/mL (≈ 0.121 µM) | MIC [30]: 0.04 µg/mL (≈ 0.121 µM)

CCn1cc(C(=O)O)c(=O)c2cc(F)c(N3CCNC(C)C3)c(F)c21 (centres undefined) [LOMEFLOXACIN]
MIC [1]: 1.22 µg/mL (≈ 3.47 µM) | MIC [2]: 0.61 µg/mL (≈ 1.74 µM) | ED50 [31]: 1.87 mg/kg | MIC [3]: 1.22 µg/mL (≈ 3.47 µM) | MIC [4]: 39.1 µg/mL (≈ 111 µM) | MIC [5]: 2.44 µg/mL (≈ 6.94 µM) | MIC [6]: 2.44 µg/mL (≈ 6.94 µM) | MIC [7]: 0.61 µg/mL (≈ 1.74 µM) | MIC [9]: 19.5 µg/mL (≈ 55.6 µM) | MIC [10]: 9.77 µg/mL (≈ 27.8 µM) | MIC [11]: 0.61 µg/mL (≈ 1.74 µM) | MIC [13]: 4.88 µg/mL (≈ 13.9 µM) | MIC [14]: 4.88 µg/mL (≈ 13.9 µM) | MIC [15]: 39.1 µg/mL (≈ 111 µM) | MIC [16]: 4.88 µg/mL (≈ 13.9 µM) | MIC [17]: 19.5 µg/mL (≈ 55.6 µM) | MIC [18]: 1.22 µg/mL (≈ 3.47 µM) | MIC [19]: 1.22 µg/mL (≈ 3.47 µM) | MIC [20]: 9.77 µg/mL (≈ 27.8 µM) | MIC [23]: 2.44 µg/mL (≈ 6.94 µM) | MIC [24]: 19.5 µg/mL (≈ 55.6 µM) | MIC [25]: 1.22 µg/mL (≈ 3.47 µM) | MIC [26]: 19.5 µg/mL (≈ 55.6 µM) | MIC [28]: 0.61 µg/mL (≈ 1.74 µM) | MIC [30]: 0.02 µg/mL (≈ 0.0569 µM)
